Series [1] is described as follows: Chemical and isotopic stability as solutions in DMSO/phosphate buffered saline over 48 hours. The following applies: for chemical purity (HPLC area percent) with respect to related substances: all samples through the study; for analyte recovered, yield: summary over the study; for disenrichment of the product (isotopic stability): throughout the time period of the study.
Protocol: A 1 mg/mL stock solution (˜55 mL) of deuterated compound in DMSO was prepared. A measured volume of stock (7.5 mL) was dispensed in to each of seven vials. To each vial was added a measured volume of PBS (aq) (3.0 mL), and each vial was agitated to mix. The vials were then placed in a thermostatically-controlled oven set to 37° C. At each time-point (0 h, 2 h, 4 h, 24 h, 48 h) a vial was drawn from the oven. To the vial was added MTBE (9.0 mL), and the mixture was stirred vigorously for 5 min. The layers were separated, and the MTBE layer was agitated with DI water (3.75 mL) for 1 min. The layers were separated. The MTBE layer was dried with MgSO4 for >1 h, and then filtered through a PTFE syringe filter into a tared vial. The solution was concentrated in vacuo to a solid residue, and the mass of the residue was calculated and recorded. To the residue a measured volume of MeOH was added to make (theoretically) a 2.5 mg/mL solution. In this case, 3.00 mL MeOH was added to each vial which theoretically contained 7.5 mg of compound. The content of each solution was measured by quantitative HPLC analysis (by comparison to a standard of known concentration). The MeOH solutions were then recovered, concentrated in vacuo to a solid, and then analyzed by GCMS to determine isotopic enrichment as the methyl ester derivatives.

Series [2] in a line: Comparative oral bioavailability / pharmacokinetic study, single intravenous and oral administration. The series is classed as in vivo. The following applies: rat; for C0 / t1/2 / AUCinf / Cmax / tmax: Mean CV (%); for F (oral bioavailability): 50 mg/kg po vs 5 mg/kg iv, Mean (CV %); for tmax of the individual treated rats: oral administration 50 mg/kg, post-dose. How it is done: The pharmacokinetic properties and the oral bioavailability were investigated for the following comparative compounds:
The plasma concentrations of the test items were measured by LC/MS/MS method following single intravenous and oral administration at the doses of 5 mg/kg body weight and 50 mg/kg body weight, respectively. Following intravenous administration small inter-individual variability was observed. Following i.v administration, the highest plasma concentrations were measured at the first sampling time-point (5 minutes) followed by a biphasic continuous decrease. […] The peak concentrations, tmax and the apparent terminal elimination half-lives (t1/2) were the followings:
The vehicle for oral administration was prepared in advance. Preparation: 1 g of carboxymethylcellulose sodium salt was dissolved in 100 ml of Humaqua. The vehicle was prepared at least 2 days prior to formulation of the test items. The vehicle was stored in a refrigerator when not in use.
The required amount of test item was weighed on an analytical balance, transferred into a suitable vial. The test item was dissolved in the required volume of N,N-dimethylacetamide (40% of the final volume). Dissolution of the test item was facilitated by gentle mixing by vortex. The solution was diluted with the suitable volume of PEG400 (40% of the final volume) then Salsol A (20% of the final volume). The final concentration of the test item in the solution was 5 mg/ml. The formulations were prepared freshly on the day of administration.
The required amount of test item was weighed on an analytical balance, transferred into a test tube and mixed with the suitable volume of 1% CMC to achieve the final concentration of 25 mg/ml. The suspension was sonicated twice in bath sonicator for 30 min at 40 C (each round), and left overnight at room temperature. On the following day, the suspension was sonicated again (bath sonicator, 30 min, 40° C.) and further homogenized in a glass/glass homogenizer trying to reaching an homogenous suspension. In spite of the above procedure the quality (homogeneity) of the suspension was not perfect. The suspension was stored at room temperature till administration.
Species/Strain rat/Wistar (Crl:(WI)BR rats)
Number of animals: 24 males (at least 32 for cannulation*)
After the acclimatization period, rats were equipped with a jugular vein cannula under isoflurane anesthesia. The following day the animals were used for the study. In the morning the rats were checked for health status and blood sampling before assigning them into the experimental group.
The terminal elimination phase was defined on the basis of the last 3-5 measured concentration except rat A4. […] The central volume of distribution (Vc: […]) was approximately equal to the total blood volume. The volume of distribution estimated for the steady state situation (Vss: 97.3-143 ml/kg) remained also small compared to the total extracellular fluid volume (˜300 ml/kg). The clearance was also very small for all experimental compound analogues. The smallest clearance was obtained for Compound 7: 23.2 ml/h/kg.

The subject of another series is Male db/db Mouse Model. The series is described as follows: Comparative in vivo efficacy study, 3 h-fasting blood glucose. Conditions: db/db mice. As to the method:
Male db/db Mouse Model. Age of animal at start of treatment: 10-11 weeks. Animals per treatment group: 6-7 mice per each group.
Vehicle control: (1% CMC in water).
Positive control: Rosiglitazone, 25 mg/kg.
Group I: Compound 7″, 12.5 mg/kg.
Group II: Compound 7″, 25 mg/kg. […]
Group IV: Compound 7, 25 mg/kg.
Duration of treatment: 15 days.
1. Dosing: Animals are 10-11 weeks of age and were allowed to acclimate 1-2 weeks. After acclimation, animals were entered to the study and were […] daily for a duration of 15 days.
2. Formulation: compounds were formulated with […]. Formulation also involve sonication and vortexing before use.
4. Fasting Glucose Levels: 3 h-Fasting glucose levels were measured on tail blood of all the animals on days 0, 6, 12, and 16 (not shown) of the study using glucose sticks (Proforma).

The mark [3] stands for this setting: DMSO/PBS solution, 37° C., 24 h.
Where [4] appears, read: DMSO/PBS solution, 37° C., 48 h.
Setting [5] is: Original Sample (before the stability study).

Molecules are shown by their SMILES.

On to `[2H]C([2H])([2H])C(CCCCCCCCCCC(C([2H])([2H])[2H])(C([2H])([2H])[2H])C([2H])([2H])C(=O)O)(C([2H])([2H])[2H])C([2H])([2H])C(=O)O` [Compound 1, 3,3,14,14-[D16]Tetramethyl-1,16-hexadecanedoic acid], for which, in series [1] (DMSO/PBS solution, 37° C., 0 h), the “GC/MS IE (isotopic enrichment)” value came out at 98.3%, the “HPLC Area Percentage” value came to 98.1% and the “HPLC Assay” value is 66.5%. Besides, in series [1] (DMSO/PBS solution, 37° C., 2 h), the “GC/MS IE (isotopic enrichment)” value is 98.2%, the “HPLC Area Percentage” value was 97.2% and the “HPLC Assay” value stood at 64.5%. In series [1] (DMSO/PBS solution, 37° C., 4 h), the “GC/MS IE (isotopic enrichment)” value is listed as 98.2%, the “HPLC Area Percentage” value came to 97.8% and the “HPLC Assay” value is on record as 70.1%. In addition, in series [1] (setting [3]), the “GC/MS IE (isotopic enrichment)” value is listed as 98.3%, the “HPLC Area Percentage” value amounted to 97.6% and the “HPLC Assay” value turned out to be 89.3%. In series [1] (setting [4]), the “GC/MS IE (isotopic enrichment)” value is recorded as 98.3%, the “HPLC Area Percentage” value is on record as 97.5% and the “HPLC Assay” value worked out at 86.3%. In series [1] (DMSO/PBS solution, 37° C.), the “chemical purity (HPLC area percent) with respect to related substances” value is recorded as “around 97%”; the “analyte recovered, yield” value was “over 90%”; the “disenrichment of the product (isotopic stability)” value was “No disenrichment”. Moreover, in series [1] (setting [5]), the “GC/MS IE (isotopic enrichment)” value was found to be 98.3% and the “HPLC Area Percentage” value came out at 100.0%. Also, in series [2] (5 mg/kg iv dose), the C0 is 67.0 (8.8%) μg/ml and the t1/2 was 2.81 (28.5%) h. Moreover, the AUCinf in series [2] (5 mg/kg iv) was 137 (19.3%) h * μg/ml. Besides, in series [2] (50 mg/kg po dose), the Cmax is reported as 114 (19.6%) μg/ml, the t1/2 is on record as 4.29 (15.7%) h and the tmax was 4 (0%) h. In series [2], the “F (oral bioavailability)” value is reported as 91.0 (11.1) % and the “tmax of the individual treated rats” value was determined as 4 h. Further, in series [2] (50 mg/kg po), the AUCinf is given as 1246 (11.1%) h * μg/ml.
Consider `CC(C)(CCCCCCCCCCC(C)(C)CC(=O)O)CC(=O)O` [Compound 1″, reference compound], for which, in series [2] (5 mg/kg iv dose), the C0 was 56.1 (6.2%) μg/ml and the t1/2 is on record as 2.68 (6.0%) h. Moreover, in series [2] (5 mg/kg iv), the AUCinf is reported as 124 (23.6%) h * μg/ml. For the same molecule, in series [2] (50 mg/kg po dose), the Cmax is given as 103 (24.2%) μg/ml, the t1/2 was 2.43 (57.6%) h and the tmax was 3.5 (79.5%) h. Further, the “F (oral bioavailability)” value in series [2] is 69.6 (29.4) %. In addition, the AUCinf in series [2] (50 mg/kg po) is recorded as 863 (29.4%) h * μg/ml.
Consider `[2H]C([2H])([2H])C(CCCCCCCCCCCCC(C(=O)O)(C([2H])([2H])[2H])C([2H])([2H])[2H])(C(=O)O)C([2H])([2H])[2H]` [Compound 7, 2,2,15,15-Tetramethyl(D12)-hexadecanedioic acid], for which the “GC/MS IE (isotopic enrichment)” value was 99.9% in series [1] (DMSO/PBS solution, 37° C., 0 h); 99.9% in series [1] (DMSO/PBS solution, 37° C., 2 h); 99.9% in series [1] (DMSO/PBS solution, 37° C., 4 h); 99.9% in series [1] (setting [3]); 99.9% in series [1] (setting [4]); 99.9% in series [1] (setting [5]). Further, the “HPLC Area Percentage” value is 96.8% in series [1] (DMSO/PBS solution, 37° C., 0 h); 95.4% in series [1] (DMSO/PBS solution, 37° C., 2 h); 95.8% in series [1] (DMSO/PBS solution, 37° C., 4 h); 96.9% in series [1] (setting [3]); 96.7% in series [1] (setting [4]); 99.5% in series [1] (setting [5]). Besides, the “HPLC Assay” value in series [1] (DMSO/PBS solution, 37° C., 0 h) is 89.4%; in series [1] (DMSO/PBS solution, 37° C., 2 h), 101.6%; in series [1] (DMSO/PBS solution, 37° C., 4 h), 91.6%; in series [1] (setting [3]), 92.3%; in series [1] (setting [4]) it was 82.2%. Further, the “chemical purity (HPLC area percent) with respect to related substances” value in series [1] (DMSO/PBS solution, 37° C.) is given as “around 96%”. Besides, in series [1] (DMSO/PBS solution, 37° C.), the “analyte recovered, yield” value is “approximately 90%”. The “disenrichment of the product (isotopic stability)” value in series [1] (DMSO/PBS solution, 37° C.) is recorded as “No disenrichment”. The “efficacy on 3 h-fasting blood glucose, in words” value in the series on Male db/db Mouse Model (Group III (Compound 7, 25 mg dose) compared with Groups I and II (Compound 7″)) was “exceeds that of both treatment Groups I and II”; in the series on Male db/db Mouse Model (Group IV (Compound 7, 25 mg), days 0, 6, 12, compared with Rosiglitazone 25 mg/kg) it was “greater efficacy as compared with Rosiglitazone”. Besides, in the series on Male db/db Mouse Model (Group IV (Compound 7, 25 mg)), the “glucose level reached (normalized plasma levels)” value was “less than 110 mg %”. Further, the C0 in series [2] (5 mg/kg iv dose) is given as 64.3 (16.9%) μg/ml. For the same molecule, the t1/2 in series [2] (5 mg/kg iv dose) is 2.14 (2.6%) h; in series [2] (50 mg/kg po dose), 6.64 (50.3%) h. The values for the AUCinf in series [2] (5 mg/kg iv) and in series [2] (50 mg/kg po) were 218 (14.9%) h * μg/ml and 2221 (36.8%) h * μg/ml, respectively. In addition, the Cmax in series [2] (50 mg/kg po dose) was 151 (29.0%) μg/ml. Also, the tmax in series [2] (50 mg/kg po dose) is 4 (0%) h. Further, the “F (oral bioavailability)” value in series [2] is reported as 102 (36.8) %. Moreover, the mean residence time was found to be 4.2 h in series [2] (intravenous administration) and 11.8 h in series [2] (oral administration). The same molecule yielded a clearance in series [2] (iv administration) of 23.2 mL/h/kg. For the same molecule, the “tmax of the individual treated rats” value in series [2] was determined as 4 h.
For the molecule `CC(C)(CCCCCCCCCCCCC(C)(C)C(=O)O)C(=O)O` [Compound 7″, reference compound], in series [2] (5 mg/kg iv dose), the C0 is on record as 74.6 (6.9%) μg/ml and the t1/2 is listed as 2.18 (19.1%) h. The AUCinf in series [2] (5 mg/kg iv) was 128 (13.4%) h * μg/ml. Also, in series [2] (50 mg/kg po dose), the Cmax is recorded as 143 (41.3%) μg/ml, the t1/2 is listed as 2.22 (9.9%) h and the tmax was 8 (50.0%) h. Moreover, the “F (oral bioavailability)” value in series [2] was 124 (28.3) %. For the same molecule, the AUCinf in series [2] (50 mg/kg po) is 1586 (28.3%) h * μg/ml.
